Measurements as given in patent publication US8030547B2, “Gene coding for acetolactate synthase” (priority 2002, dated 2011).

Columns and labels:
Type in all cases: biochemical, Oryza sativa var. Kinmaze
[1] = target: T1, mutant ALS protein of Vg line (Oryza sativa subsp. japonica, UniProt Q6K2E8); assay: Herbicide sensitivity of partially purified ALS protein (ALS activity inhibition), Vg line; settings: read-out: I50 (nM) Vg; partially purified ALS, 30° C., probit analysis
T1 construct: other: partially purified ALS, 30° C., probit analysis
Description: (§1) First, 200 g or more of resistant mutant was prepared by a liquid culture method (no supplementation with bispyribac-sodium), using a composition as shown in Table 3 excluding Gelrite. Then, about 150 g of the resistant mutant was homogenized using Hiscotron in a volume of buffer-1 [100 mM potassium phosphate buffer (pH 7.5) containing 20% (v/v) glycerol, […] thiamin pyrophosphate (TPP), 10 μM flavin adenine dinucleotide (FAD), 0.5 mM MgCl2, and a volume of polyvinyl polypyrrolidone one-tenth that of tissue volume] 3-fold greater than tissue volume. The homogenate was filtered through nylon gauze, and then centrifuged at 15000×g for 20 minutes. Ammonium sulfate was added to the centrifuged supernatant to 50% saturation, and then allowed to stand in ice for approximately 1 hour. The mixture was again centrifuged at 15000×g for 20 minutes, and then the precipitated fraction was dissolved in approximately 30 ml of buffer-2 [10 mM Tris hydrochloric acid buffer (pH 7.5) containing 20% (v/v) glycerol, 0.5 mM TPP and 0.5 mM MgCl2]. The mixture was again centrifuged at 15000×g for 20 minutes, and then the supernatant fraction was applied to a Sephadex G-25 (Amersham Bioscience). About 40 ml of the fraction that had passed through the column was collected as a crude enzyme solution.
(§2) Next, the protein concentration of the crude enzyme solution was measured by the Bradford method according to the manual of Bio-Rad Protein Assay. The crude enzyme solution was then filtered through a Whatman filter (Whatman), and then the crude enzyme solution in an appropriate protein amount (10 to 15 ml) was applied to three vertically-connected HiTrap Q columns (Amersham Bioscience) using a FPLC device (Amersham Bioscience). After protein component was adsorbed using HiTrap Q, unadsorbed fractions were washed out using buffer-2 having a volume 3 to 5 fold greater than the bed volume. Then, the adsorbed protein component was eluted using an eluate having a volume 10 fold greater than the bed volume (150 ml). Here, the eluate was prepared by dissolving KCl with a linear concentration gradient (0 to 0.4 M) into buffer-2. The eluate containing the eluted protein component was apportioned, 5 ml each, into a plurality of test tubes for apportioning. Further, to stabilize ALS protein contained in the eluted protein component, 0.5 ml of buffer-2 containing 20 mM sodium pyruvate had been previously added to each test tube for apportioning.
(§3) ALS activity resulting from the mutant ALS protein contained in the eluted fractions apportioned into each test tube for apportioning was measured as follows. A reaction solution to be used in a measurement reaction was prepared by mixing an eluted fraction to be measured with a solution comprising 20 mM sodium pyruvate, 0.5 mM TPP, 0.5 mM MgCl2, 10 μM FAD and 20 mM potassium phosphate buffer (pH 7.5). One ml of this reaction solution was used. After the eluted fraction to be measured was added, the measurement reaction was performed at 30° C. for 40 to 60 minutes. Then, the reaction was stopped by addition of 0.1 ml of 6N sulfuric acid (or 0.25 N sodium hydroxide).
(§4) After the reaction was stopped, the reaction solution was incubated at 60° C. for 10 minutes, thereby converting acetolactate contained in the reaction solution to acetoin.
(§5) Then, to quantify acetoin contained in the reaction solution, 1 ml of 0.5% (w/v) creatine and 1 ml of 5% (w/v) α-naphthol dissolved in 2.5 N sodium hydroxide was added to the reaction solution, followed by incubation at 37° C. for 10 minutes. Acetoin was then quantified by color comparison of the absorbance (at 525 nm) of the reaction solution, thereby evaluating ALS activity. In addition, since the reaction solution contained a small amount of sodium pyruvate, reaction time 0 was used as control.
(§6) Using the enzyme solution containing the mutant ALS protein, sensitivity of the mutant ALS protein to bispyribac-sodium, chlorsulfuron and imazaquin was examined. […]

[2] = tested on: mutant ALS protein of Vg line; assay: as above; settings: I50 of the resistant mutant divided by I50 of the wild type
Description: as §1, §2, §3, §4, §5, §6

[3] = target: T2, mutant ALS protein of Rb line (Oryza sativa subsp. japonica, UniProt Q6K2E8, P171H, form not given); assay: Herbicide sensitivity of partially purified ALS protein (ALS activity inhibition), Rb line; settings: read-out: I50 (nM) Rb; partially purified ALS, 30° C., probit analysis
T2 construct: other: partially purified ALS, 30° C., probit analysis
Description: as §1, §2, §3, §4, §5, §6

[4] = tested on: mutant ALS protein of Rb line; assay: as above; settings: I50 of the resistant mutant divided by I50 of the wild type
Description: as §1, §2, §3, §4, §5, §6

T1 sequence (Q6K2E8 whole entry W548L, form open): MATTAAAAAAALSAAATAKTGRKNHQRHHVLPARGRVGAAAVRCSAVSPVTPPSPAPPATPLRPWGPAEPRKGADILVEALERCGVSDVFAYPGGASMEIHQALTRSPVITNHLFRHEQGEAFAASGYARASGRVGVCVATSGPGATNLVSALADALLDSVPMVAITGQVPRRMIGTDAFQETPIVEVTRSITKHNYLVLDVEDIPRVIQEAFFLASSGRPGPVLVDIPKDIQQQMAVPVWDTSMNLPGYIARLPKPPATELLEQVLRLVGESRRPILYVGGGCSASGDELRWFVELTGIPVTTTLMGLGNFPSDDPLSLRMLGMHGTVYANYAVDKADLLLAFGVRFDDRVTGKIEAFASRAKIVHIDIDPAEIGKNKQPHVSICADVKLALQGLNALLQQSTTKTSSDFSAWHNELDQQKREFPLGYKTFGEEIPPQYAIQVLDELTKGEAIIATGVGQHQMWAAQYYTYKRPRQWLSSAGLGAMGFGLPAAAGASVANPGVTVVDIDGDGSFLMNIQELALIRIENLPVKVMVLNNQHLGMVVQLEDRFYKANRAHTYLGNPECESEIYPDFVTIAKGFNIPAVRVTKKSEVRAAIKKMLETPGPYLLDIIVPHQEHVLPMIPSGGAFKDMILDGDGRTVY
T2 sequence (Q6K2E8 whole entry P171H/W548L, form open): as the sequence (Q6K2E8 whole entry W548L, form open) above, with P171H counted along it

SMILES | IC50 [1] [nM] | RS ratio Vg [2] | IC50 [3] [nM] | RS ratio Rb [4]
COc1cc(OC)nc(Oc2cccc(Oc3nc(OC)cc(OC)n3)c2C(=O)O)n1 [bispyribac-sodium] | 97.2 | 17.3 | 247000 | 43900
COc1nc(C)nc(NC(=O)NS(=O)(=O)c2ccccc2Cl)n1 [chlorsulfuron] | 495 | 28.6 | 32000 | 1850
CC(C)C1(C)N=C(c2nc3ccccc3cc2C(=O)O)NC1=O (stereo not drawn) [imazaquin] | 44100 | 29.8 | 609000 | 411
